Each structure is given as a SMILES string.

The nature of this series: in vitro. As to conditions: human, hela cells, % viability.
The term viability denotes a read-out of living cells in per cent, often relative to untreated cells. As for `CO[C@@H](C(=O)Nc1cnc(-c2ccc(F)cc2)c(-c2ccsc2)n1)c1ccccc1` [CBK036803], the viability at 28.5 h, 10 µM came to 98.4%.

On to `O=[N+]([O-])c1cccc(S(=O)(=O)NCCSc2ccccc2)c1` [CBK267862], for which the viability at 28.5 h, 10 µM was determined as 94.1%.

As for `Cc1nc2ccccc2[nH]/c1=N/O` [CBK018103], the viability at 28.5 h, 10 µM was 104%.

For the compound `Cn1c(=O)cc(Oc2ccc(F)cc2)c2ccccc21` [CBK281451], the viability at 28.5 h, 10 µM worked out at 88.1%.

Consider `Cc1cccc(C(=O)NCCc2nc3ccccc3[nH]2)c1` [CBK263493], for which the viability at 28.5 h, 10 µM is 100%.

For `COc1ccccc1CC(=O)Nc1ccc(-c2nnc(-c3ccc(C)cc3)o2)cc1` [CBK268329], the viability at 28.5 h, 10 µM turned out to be 105%.

Take `O=C(NC[C@H]1O[C@@H](CC(=O)N2CCN(c3ccccn3)CC2)[C@H](O)[C@@H]1O)C1CC1` [CBK288904]: the viability at 28.5 h, 10 µM is 107%.

On to `CCOC(=O)N1CCN(S(=O)(=O)c2ccc3oc(=O)ccc3c2)CC1` [CBK305870], for which the viability at 28.5 h, 10 µM stood at 82.6%.

On to `COc1cccc(NC(=O)CCN2CCN(CCO)CC2)c1` [CBK264207C], for which the viability at 28.5 h, 10 µM amounted to 88.3%.

In the case of `CC(=O)NS(=O)(=O)c1ccc(Nc2ccc([N+](=O)[O-])c3nonc23)cc1` [CBK261443], the viability at 28.5 h, 10 µM came to 89.7%.

Turning to `COc1ccc(-c2noc(CSc3nnc(-c4ccncc4)n3C)n2)cc1` [CBK268245], the viability at 28.5 h, 10 µM turned out to be 96.8%.

Consider `O=S(=O)(c1c(Cl)cc(C(F)(F)F)cc1Cl)N1CCOCC1` [CBK057736], for which the viability at 28.5 h, 10 µM was found to be 88.8%.

`COc1ccc(Cc2c(C)nc3c(C(=O)NCC4COc5ccccc5O4)cnn3c2C)cc1` (stereo not shown) [CBK162179]: the viability at 28.5 h, 10 µM was determined as 102%.

In the case of `CCc1nc2ccc(C(=O)N3CCNC(=O)C3)cn2c1N(C)C(=O)COc1ccccc1` [CBK145871], the viability at 28.5 h, 10 µM was determined as 107%.

As for `Cc1cc(C)n(CCCNC(=O)N2CCC(c3nccs3)CC2)n1` [CBK304088], the viability at 28.5 h, 10 µM came out at 91.9%.

On to `CCOC(=O)C1=C(C)NC(=O)NC1c1ccc(-c2ccccc2F)o1` (stereo not shown) [CBK263867], for which the viability at 28.5 h, 10 µM is 95.7%.

As for `CC(C)n1c(CN2CCOCC2)nc2c1c(=O)n(C)c(=O)n2C` [CBK306201], the viability at 28.5 h, 10 µM stood at 83.7%.

As to `COc1ccc(NC(=O)c2c(NC(=O)CN3CCCC(C)C3)sc3c2CCC3)cc1` (stereo not shown) [CBK265061], the viability at 28.5 h, 10 µM is 93.3%.

Take `O=C(Nc1ccc2[nH]ccc2c1)c1c(F)cccc1F` [CBK144711]: the viability at 28.5 h, 10 µM is 95.9%.

With `CCCc1[nH]nc(O)c1Cc1ccc(F)cc1F` [CBK075015], the viability at 28.5 h, 10 µM was found to be 85.7%.

As for `CN(CC(=O)O)S(=O)(=O)c1cccc2cccc(Cl)c12` [CBK268433], the viability at 28.5 h, 10 µM was 107%.

On to `CC(C(=O)N(C)C)n1cccc1` (stereo not shown) [CBK012421], for which the viability at 28.5 h, 10 µM was 86.4%.

For `Cc1nc(CC(=O)NC2CCCN(c3ccn(C)n3)C2=O)c(C)s1` (stereo not shown) [CBK304422], the viability at 28.5 h, 10 µM was 82.8%.

On to `Nc1ncncc1-c1noc([C@@H]2CCCN2c2ncccn2)n1` [CBK288901], for which the viability at 28.5 h, 10 µM is 111%.

In the case of `Cc1ccc(OCC(=O)N2CCN(C(=O)c3cccs3)CC2)c([N+](=O)[O-])n1` [CBK297152], the viability at 28.5 h, 10 µM was 94.4%.

For `CC12CN3CC(C)(CN(C1)C3c1cccc([N+](=O)[O-])c1)C2=O` (stereo not shown) [CBK009030], the viability at 28.5 h, 10 µM was determined as 88.9%.

Take `O=c1[nH]c2ncc(-c3ccc(-c4ccccc4)cc3)nc2n1Cc1cccnc1` [CBK064282]: the viability at 28.5 h, 10 µM was found to be 94%.

Regarding `Cc1noc(C)c1CC(=O)NCc1cccc(C#N)c1` [CBK305822], the viability at 28.5 h, 10 µM is 106%.

With `O=C1NC2(CCc3ccccc31)CCN(C/C=C/c1cccnc1)C2` (stereo not shown) [CBK284622], the viability at 28.5 h, 10 µM was determined as 86.2%.

For `Cc1cc2ncn(CC(=O)Nc3c(C)noc3C)c2cc1C` [CBK200222], the viability at 28.5 h, 10 µM is 79.5%.

As for `CCOCCCC(=O)N1CCn2c(nnc2-c2cncc(Br)c2)C1` [CBK304764], the viability at 28.5 h, 10 µM stood at 91.5%.

For the compound `O=C(c1ccc2ncccc2c1)N1CCC2(CCN(C(=O)c3cc(F)c(F)cc3F)C2)C1` (stereo not shown) [CBK131391], the viability at 28.5 h, 10 µM turned out to be 91%.

In the case of `CC(C)Cc1csc(C2CN3CCCC3CO2)n1` (stereo not shown) [CBK304807], the viability at 28.5 h, 10 µM was 83.9%.

For the compound `CCc1ccc(CNC(=O)Cn2nnc(-c3ccc(CN4CCC(C)CC4)cn3)n2)cc1` [CBK153928C], the viability at 28.5 h, 10 µM is 93.6%.

Take `Nc1ncnc(Nc2ccc(F)cc2Cl)c1[N+](=O)[O-]` [CBK267255]: the viability at 28.5 h, 10 µM turned out to be 93.1%.

Take `Cn1cc(C2CCCCCN2C(=O)c2nn(C)cc2Cl)cn1` (stereo not shown) [CBK284972]: the viability at 28.5 h, 10 µM was 93.2%.

With `CCN(CC)CCn1c(-c2ccccc2)c(OCCO)c2ccccc2c1=O` [CBK010078], the viability at 28.5 h, 10 µM was 96.9%.

With `CN1CCN(c2nc(-c3ccc4c(c3)CCC(=O)N4)cs2)CC1` [CBK304319C], the viability at 28.5 h, 10 µM stood at 80.6%.

As to `COC(=O)CC[C@H]1CNC(=O)[C@@H]2[C@@H](CCN2S(C)(=O)=O)N1C` [CBK289019], the viability at 28.5 h, 10 µM was found to be 112%.

For the compound `COc1nccnc1-c1cnn(Cc2ccccc2)c1` [CBK107090], the viability at 28.5 h, 10 µM stood at 101%.

With `CCNC(=O)Nc1cc2cccnc2nc1-c1cc(F)cc(F)c1` [CBK070638], the viability at 28.5 h, 10 µM worked out at 97%.

Regarding `c1csc(C2CN(c3nccn4cnnc34)CCO2)c1` (stereo not shown) [CBK306380], the viability at 28.5 h, 10 µM came out at 85%.

For the compound `Cc1ncncc1C(=O)NCC1(c2ccccc2F)CCCC1` [CBK281411], the viability at 28.5 h, 10 µM was 105%.

In the case of `Cc1cc(C)nc(SCC(=O)c2ccc(F)cc2)n1` [CBK092116], the viability at 28.5 h, 10 µM is 82.1%.

With `O=c1[nH]nc(SCCCOc2ccc(Cl)cc2)n1C1CC1` [CBK295597], the viability at 28.5 h, 10 µM came out at 115%.

Consider `COc1ccc(CCN(C)Cc2ccncc2)cc1OC` [CBK261861], for which the viability at 28.5 h, 10 µM stood at 98.4%.

`COCCCN(Cc1ccccn1)Cc1ccc(F)cc1F` [CBK282974]: the viability at 28.5 h, 10 µM came to 103%.

In the case of `COC(=O)N1CCN(c2ccccc2)CC1` [CBK200414], the viability at 28.5 h, 10 µM is 85.5%.

Consider `CC(C)(C)C(=O)CSc1nnc(-c2ccccn2)s1` [CBK006894], for which the viability at 28.5 h, 10 µM is 91.9%.

Take `CCOC(=O)N(C)c1c(CC)nc2ccc(C(=O)N(C)CCCN(C)C)cn12` [CBK146478]: the viability at 28.5 h, 10 µM is 107%.

As to `O=C(C1CCCC1)N1C[C@@H]2CCCCN(CC3CC3)[C@@H]2C1` [CBK285493], the viability at 28.5 h, 10 µM was 104%.

As to `CC(C)CC(C(=O)O)N1C(=O)/C(=C2/C(=O)Nc3ccc(Br)cc32)SC1=S` (stereo not shown) [CBK261610], the viability at 28.5 h, 10 µM is 84.7%.

Turning to `Cc1ccc(C#N)c(S(=O)(=O)Nc2cc(N3C[C@@H](C)N[C@@H](C)C3)c3occc3c2)c1` [CBK034756C], the viability at 28.5 h, 10 µM is 89.7%.

In the case of `O=S(=O)(Nc1ccccc1)c1ccccc1I` [CBK057566], the viability at 28.5 h, 10 µM stood at 92.5%.

As for `COc1cc(C(=O)NCc2ccccn2)cc(OC)c1OC` [CBK058552], the viability at 28.5 h, 10 µM amounted to 88.3%.

`Cc1nc(-c2ccc(NC(=O)Cc3sc(C)nc3C)cc2)cs1` [CBK281404]: the viability at 28.5 h, 10 µM was 96%.

Turning to `CC(=O)N(C)Cc1cccc(Nc2ncnc3c2cnn3CCO)c1` [CBK305979], the viability at 28.5 h, 10 µM turned out to be 96.1%.

Consider `N#CCCCN1CCN(c2nccnc2OCc2ccc(Cl)c(Cl)c2)CC1` [CBK083086T], for which the viability at 28.5 h, 10 µM was determined as 94%.

`COc1ccccc1-c1cc(C(F)F)nc(S)c1C#N` [CBK288358]: the viability at 28.5 h, 10 µM was 88.8%.

On to `Cc1ccc2cc(CN(Cc3ccccc3)C(=O)NCc3c(Cl)cccc3Cl)c(=O)[nH]c2c1C` [CBK132088], for which the viability at 28.5 h, 10 µM is 81.8%.

In the case of `Cc1oc2c(c1C(=O)NCCn1ccnc1C)CCCC2` [CBK281898], the viability at 28.5 h, 10 µM came to 97.1%.

In the case of `CCC(C)(C)C(=O)Nc1ccc(Cl)nc1` [CBK091334], the viability at 28.5 h, 10 µM came to 96.4%.

With `CCN(CC)C(=O)CN(CCc1ccc(OC)c(OC)c1)C(=O)NCc1ccc(Cl)cc1` [CBK158742], the viability at 28.5 h, 10 µM came to 110%.

As to `Cc1ccc(-c2noc(-c3cccnc3N3CCC(C(=O)O)CC3)n2)cc1` [CBK287260], the viability at 28.5 h, 10 µM came to 90.3%.

Regarding `COc1cc(C(C)c2cc3c(cc2O)OCO3)cc(OC)c1OC` (stereo not shown) [CBK200103], the viability at 28.5 h, 10 µM was determined as 36.3%.

For the compound `NC(=O)NCc1ccc(F)cc1` [CBK019769], the viability at 28.5 h, 10 µM was found to be 110%.

As to `CCc1oc2ccc(Cl)cc2c1C(=O)CCN1CCCCC1` [CBK009675C], the viability at 28.5 h, 10 µM is 99.1%.

As for `CSc1cc(C)c(O)c(CO)c1` [CBK020687], the viability at 28.5 h, 10 µM came out at 85.7%.

Take `Nc1cc2cccnc2nc1-c1cccc2cccnc12` [CBK067609]: the viability at 28.5 h, 10 µM came to 99.9%.

With `N#Cc1c(C(F)(F)F)cc(-c2ccccc2)nc1SCCC(=O)Nc1ccccc1O` [CBK268191], the viability at 28.5 h, 10 µM was determined as 103%.

Regarding `Cc1ccc(-c2cc(C(=O)N(C)CC3(C)COC3)[nH]n2)cc1` [CBK281717], the viability at 28.5 h, 10 µM amounted to 90.9%.

`O=C(Cc1c(O)c2ccccc2[nH]c1=O)NCc1ccc(Cl)cc1` [CBK160317]: the viability at 28.5 h, 10 µM worked out at 101%.

Take `CCC1CCCCN1C(=O)c1cc2ccccc2s1` (stereo not shown) [CBK074211]: the viability at 28.5 h, 10 µM came to 85.3%.

With `CCOC(=O)C(C)n1ncc2c3sc(C)cc3n(C)c2c1=O` (stereo not shown) [CBK284157], the viability at 28.5 h, 10 µM was found to be 85.9%.

Consider `CC(=O)Nc1ccc(S(=O)(=O)N(c2ccc(C(C)(C)C)cc2)C2CCNCC2)cc1` [CBK165062T], for which the viability at 28.5 h, 10 µM turned out to be 90.4%.

For `Clc1ccc(-n2ncc(-c3ccsc3)n2)cc1Cl` [CBK112843], the viability at 28.5 h, 10 µM turned out to be 96.3%.

`COc1ccc(Cl)cc1C(=O)O/N=C(\N)Cc1cccc2ccccc12` [CBK266275]: the viability at 28.5 h, 10 µM was found to be 98.3%.

In the case of `CN(C)CCCN(Cc1ccco1)Cc1c[nH]nc1-c1cccs1` [CBK283198], the viability at 28.5 h, 10 µM is 106%.

Turning to `Cc1cc(Cl)c(S(=O)(=O)NCc2ccccc2)cc1OCC(N)=O` [CBK266588], the viability at 28.5 h, 10 µM was 104%.

For the compound `COCc1cccc(-c2ncc(OCc3ccccn3)nc2N)c1` [CBK145108], the viability at 28.5 h, 10 µM was determined as 93.9%.

Consider `c1cc(-c2cnn(-c3ccc4c(c3)CCO4)n2)cs1` [CBK112861], for which the viability at 28.5 h, 10 µM stood at 93.4%.

On to `O=S(=O)(c1csc2ccccc12)N1CCOCC1` [CBK062401], for which the viability at 28.5 h, 10 µM worked out at 90.7%.
